We go through 15 compounds from patent US20140005163A1 (NOVARTIS AG, priority 2010, published 2014).

Where only a bound is given, the exact number is not on record here.

In one assay the target is T1, PI3K alpha (Homo sapiens, UniProt P42336).
T1 construct: p85(iSH2) fusion partner (see partner chain) (N); His tag (C); made in house; host or cells: baculovirus; Tn5 (Trichoplusia ni) or TiniPro insect cells
The assay is described as follows: PI3K alpha kinase assay (Kinase-Glo luminescence). It is filed as biochemical. Summed up:
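IC50 is taken from a four-parameter logistic fit of 8-point dilutions, with Kinase-Glo luminescence reporting residual ATP. Reactions ran 60 min at room temperature in TRIS pH 7.5 buffer with MgCl2, NaCl, CHAPS and DTT. Final levels were 10 nM enzyme, 1 μM ATP and 10 μg/mL PI.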
(Kinase-Glo measures the ATP left after a reaction by luminescence.)

Another assay deals with T2, mTOR (Homo sapiens, UniProt P42345).
T2 construct: purchased Invitrogen Corporation (Carlsbad/CA, USA) PV4753
T2 sequence (P42345 1360-2549 limits assumed): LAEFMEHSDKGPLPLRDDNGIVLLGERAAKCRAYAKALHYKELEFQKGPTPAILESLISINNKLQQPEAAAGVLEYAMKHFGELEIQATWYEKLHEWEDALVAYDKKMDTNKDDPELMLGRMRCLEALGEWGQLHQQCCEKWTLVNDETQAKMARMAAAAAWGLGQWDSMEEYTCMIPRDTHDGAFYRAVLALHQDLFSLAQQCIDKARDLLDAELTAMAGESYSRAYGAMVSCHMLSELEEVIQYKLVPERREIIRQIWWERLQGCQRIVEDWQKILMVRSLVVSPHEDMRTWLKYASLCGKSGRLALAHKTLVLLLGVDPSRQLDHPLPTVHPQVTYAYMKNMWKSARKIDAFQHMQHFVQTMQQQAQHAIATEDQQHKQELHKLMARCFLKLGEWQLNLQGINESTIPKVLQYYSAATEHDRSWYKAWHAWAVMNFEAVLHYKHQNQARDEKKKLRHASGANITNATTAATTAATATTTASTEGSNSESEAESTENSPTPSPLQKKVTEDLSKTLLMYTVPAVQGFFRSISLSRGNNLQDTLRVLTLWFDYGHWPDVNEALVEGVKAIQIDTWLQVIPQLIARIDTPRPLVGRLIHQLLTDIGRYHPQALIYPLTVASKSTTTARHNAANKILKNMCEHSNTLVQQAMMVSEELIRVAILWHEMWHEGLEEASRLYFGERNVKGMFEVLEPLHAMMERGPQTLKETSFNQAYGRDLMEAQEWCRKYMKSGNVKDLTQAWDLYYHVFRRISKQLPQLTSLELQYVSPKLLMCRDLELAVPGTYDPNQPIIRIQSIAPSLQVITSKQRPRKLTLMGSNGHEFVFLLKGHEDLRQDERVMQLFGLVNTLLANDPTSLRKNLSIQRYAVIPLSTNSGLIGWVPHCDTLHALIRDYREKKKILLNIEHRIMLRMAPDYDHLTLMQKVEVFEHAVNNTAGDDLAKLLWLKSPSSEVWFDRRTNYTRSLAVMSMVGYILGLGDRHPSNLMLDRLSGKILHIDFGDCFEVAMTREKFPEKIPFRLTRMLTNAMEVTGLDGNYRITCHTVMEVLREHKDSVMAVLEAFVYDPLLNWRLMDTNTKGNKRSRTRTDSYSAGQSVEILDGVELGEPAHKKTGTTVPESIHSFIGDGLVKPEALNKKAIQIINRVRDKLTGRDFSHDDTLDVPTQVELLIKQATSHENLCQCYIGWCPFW
The assay is described as follows: Biochemical assay for m-TOR by TR-FRET. To be noted: 8 μM ATP, 400 nM GFP-4EBP1, 0.5 nM mTOR. The essentials:
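Enzyme 0.5 nM, GFP-4EBP1 400 nM, ATP 8 μM (all final); 50 mM HEPES pH 7.5, 10 mM MnCl2, 1 mM DTT; rt. Detection: Tb-α-p4EBP1 [pT46] 0.5 nM in EDTA, TR-FRET, 15 min. Reference compound on every plate, 16-point duplicate dilutions.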
For orientation: Time-resolved FRET reads energy transfer from a long-lived donor to a nearby acceptor.

Assay [1] concerns S6 Ribosomal Protein phosphorylation Ser235/236 in TSC1 null mouse embryo fibroblast (MEF) cells. As to the kind of experiment: Reverse protein array assay, S6 Ribosomal Protein phosphorylation Ser235/236 in TSC1 null MEF cells. It is filed as cell-based. The settings on record: 1 h, pS6 ribosomal protein Ser235/236, 60 minutes incubation, read-out: p-S6 IC50. Summed up: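 TSC1−/− MEFs, seeded and held ≥20 h at 37 °C/5% CO2, were exposed to 8-step serial compound dilutions (0.02% DMSO final; DMSO vehicle control) for 60 min at 37 °C. Cells were then lysed on ice for 10 min and lysates spotted onto reverse protein array chips.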

The term IC50 denotes the concentration that gives 50% inhibition.

T1 sequence (P42336 with tags, fused parts or gaps limits assumed): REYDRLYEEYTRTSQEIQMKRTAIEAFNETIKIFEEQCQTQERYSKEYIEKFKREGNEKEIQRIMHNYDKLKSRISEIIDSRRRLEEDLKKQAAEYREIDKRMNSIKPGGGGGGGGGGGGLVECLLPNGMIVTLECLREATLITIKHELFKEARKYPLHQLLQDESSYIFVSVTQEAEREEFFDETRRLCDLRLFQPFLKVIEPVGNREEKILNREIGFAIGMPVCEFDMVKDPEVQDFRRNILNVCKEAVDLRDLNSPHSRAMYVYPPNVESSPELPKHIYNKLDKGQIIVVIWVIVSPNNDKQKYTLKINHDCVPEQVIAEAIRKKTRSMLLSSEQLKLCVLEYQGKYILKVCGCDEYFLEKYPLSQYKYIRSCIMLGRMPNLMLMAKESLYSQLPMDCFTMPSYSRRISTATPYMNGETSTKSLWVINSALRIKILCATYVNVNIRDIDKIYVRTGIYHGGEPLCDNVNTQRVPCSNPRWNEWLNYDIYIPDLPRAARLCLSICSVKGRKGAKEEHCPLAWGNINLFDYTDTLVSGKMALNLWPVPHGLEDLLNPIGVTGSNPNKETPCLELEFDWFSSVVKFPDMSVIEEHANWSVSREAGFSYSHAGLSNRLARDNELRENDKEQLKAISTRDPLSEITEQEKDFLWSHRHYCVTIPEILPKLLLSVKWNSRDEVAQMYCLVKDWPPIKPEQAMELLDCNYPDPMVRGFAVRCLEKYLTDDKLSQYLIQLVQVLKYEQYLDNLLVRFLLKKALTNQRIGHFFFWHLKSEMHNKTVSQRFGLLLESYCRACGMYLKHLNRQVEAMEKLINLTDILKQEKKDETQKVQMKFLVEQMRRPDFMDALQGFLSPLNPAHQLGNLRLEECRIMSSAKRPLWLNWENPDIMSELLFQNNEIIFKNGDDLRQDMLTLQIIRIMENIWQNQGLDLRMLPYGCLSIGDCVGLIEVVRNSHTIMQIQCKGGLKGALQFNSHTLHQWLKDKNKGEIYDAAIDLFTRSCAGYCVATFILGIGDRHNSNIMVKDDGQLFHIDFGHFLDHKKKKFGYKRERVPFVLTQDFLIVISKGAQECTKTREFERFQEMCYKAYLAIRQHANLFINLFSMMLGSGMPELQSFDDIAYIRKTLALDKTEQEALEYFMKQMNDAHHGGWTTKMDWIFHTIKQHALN

Consider `CCOc1ccc(-c2ccc3ncc4c(c3c2)n(-c2cn(CC(=O)N3CCC3)nc2C)c(=O)n4C)cn1` [Example 138, 1-[1-(2-Azetidin-1-yl-2-oxo-ethyl)-3-methyl-1H-pyrazol-4-yl]-8-(6-ethoxy-pyridin-3-yl)-3-methyl-1,3-dihydro-imidazo[4,5-c]quinolin-2-one], for which the IC50 at PI3K alpha stood at 0.013 µM; on mTOR it was 0.01 µM; in assay [1], 0.003 µM.

`Cc1nn(C)cc1-n1c(=O)n(C)c2cnc3ccc(-c4cnc(N(C)C)nc4)cc3c21` [Example 6.2, 8-(2-Dimethylamino-pyrimidin-5-yl)-1-(1,3-dimethyl-1H-pyrazol-4-yl)-3-methyl-1,3-dihydro-imidazo[4,5-c]quinolin-2-one]: the values for the IC50 (on PI3K alpha; on mTOR; in assay [1]) were 0.022 µM, 0.043 µM and 0.008 µM, respectively.

`Cc1nn(C)cc1-n1c(=O)[nH]c2cnc3ccc(-c4cnc(N(C)C)nc4)cc3c21` [Example 207, 8-(2-Dimethylamino-pyrimidin-5-yl)-1-(1,3-dimethyl-1H-pyrazol-4-yl)-1,3-dihydro-imidazo[4,5-c]quinolin-2-one]: the IC50 at PI3K alpha stood at 0.014 µM; on mTOR, 0.011 µM; in assay [1] it was 0.022 µM.

In the case of `CCn1cc(-n2c(=O)n(C)c3cnc4ccc(-c5cncc(C(C)(C)O)c5)cc4c32)c(C)n1` [Example 215.4, 1-(1-Ethyl-3-methyl-1H-pyrazol-4-yl)-8-[5-(1-hydroxy-1-methyl-ethyl)-pyridin-3-yl]-3-methyl-1,3-dihydro-imidazo[4,5-c]quinolin-2-one], the concentration for half-maximal inhibition (IC50) is 0.006 µM on PI3K alpha, 0.013 µM on mTOR and below 0.0005 µM in assay [1].

Turning to `Cc1nn(C(C)C)cc1-n1c(=O)n(C)c2cnc3ccc(-c4ccc(N)nc4)cc3c21` [Example 23.2, 8-(6-Amino-pyridin-3-yl)-1-(1-isopropyl-3-methyl-1H-pyrazol-4-yl)-3-methyl-1,3-dihydro-imidazo[4,5-c]quinolin-2-one], the IC50 was 0.035 µM at PI3K alpha, 0.007 µM at mTOR and 0.002 µM in assay [1].

`COCCN(C)C(=O)Cn1cc(-n2c(=O)n(C)c3cnc4ccc(-c5ccccc5)cc4c32)c(C)n1` [Example 137, N-(2-Methoxy-ethyl)-N-methyl-2-[3-methyl-4-(3-methyl-2-oxo-8-phenyl-2,3-dihydro-imidazo[4,5-c]quinolin-1-yl)-pyrazol-1-yl]-acetamide]: the IC50 worked out at 0.161 µM at PI3K alpha, 0.324 µM at mTOR and 0.009 µM in assay [1].

Take `CNc1ncc(-c2ccc3ncc4c(c3c2)n(-c2cn(C)nc2C)c(=O)n4C)cc1C(F)(F)F` [Example 144.3, 1-(1,3-Dimethyl-1H-pyrazol-4-yl)-3-methyl-8-(6-methylamino-5-trifluoromethyl-pyridin-3-yl)-1,3-dihydro-imidazo[4,5-c]quinolin-2-one]: the values for the half-maximal inhibitory concentration (IC50) (on PI3K alpha; on mTOR; in assay [1]) were 0.01 µM, 0.003 µM and below 0.0005 µM, respectively.

Take `CCOc1ncc(-c2ccc3ncc4c(c3c2)n(-c2cn(C)nc2C)c(=O)n4C)cn1` [Example 52, 1-(1,3-Dimethyl-1H-pyrazol-4-yl)-8-(2-ethoxy-pyrimidin-5-yl)-3-methyl-1,3-dihydro-imidazo[4,5-c]quinolin-2-one]: the IC50 on PI3K alpha came out at 0.056 µM; at mTOR, 0.074 µM; in assay [1] it was 0.048 µM.

Consider `Cc1nn(C)cc1-n1c(=O)n(C)c2cnc3ccc(-c4ccc(N)nc4)cc3c21` [Example 23.1, 8-(6-Amino-pyridin-3-yl)-1-(1,3-dimethyl-1H-pyrazol-4-yl)-3-methyl-1,3-dihydro-imidazo[4,5-c]quinolin-2-one], for which the IC50 stood at 0.008 µM on PI3K alpha, 0.004 µM at mTOR and 0.004 µM in assay [1].

For the compound `CCOc1cncc(-c2ccc3ncc4c(c3c2)n(-c2c(C)cnn2C)c(=O)n4C)c1` [Example 56.5, 1-(2,4-Dimethyl-2H-pyrazol-3-yl)-8-(5-ethoxy-pyridin-3-yl)-3-methyl-1,3-dihydro-imidazo[4,5-c]quinolin-2-one], the values for the IC50 (at PI3K alpha; at mTOR; in assay [1]) were 0.155 µM, 0.763 µM and 0.13 µM, respectively.

As for `Cc1nn(C)cc1-n1c(=O)n(C)c2cnc3ccc(-c4cncc(OC(F)F)c4)cc3c21` [Example 183, 8-(5-Difluoromethoxy-pyridin-3-yl)-1-(1,3-dimethyl-1H-pyrazol-4-yl)-3-methyl-1,3-dihydro-imidazo[4,5-c]quinolin-2-one], the IC50 at PI3K alpha was 0.003 µM; at mTOR it was below 0.003 µM; in assay [1] it was 0.001 µM.

For the compound `CCOc1cc(-c2ccc3ncc4c(c3c2)n(-c2cn(C)nc2C)c(=O)n4C)ccn1` [Example 91, 1-(1,3-Dimethyl-1H-pyrazol-4-yl)-8-(2-ethoxy-pyridin-4-yl)-3-methyl-1,3-dihydro-imidazo[4,5-c]quinolin-2-one], the IC50 at PI3K alpha was determined as 0.083 µM; at mTOR it was 0.512 µM; in assay [1] it was 0.036 µM.

For the compound `CCOc1cc(-c2ccc3ncc4c(c3c2)n(-c2cn(C)nc2C)c(=O)n4C)cnc1C` [Example 85.1, 1-(1,3-Dimethyl-1H-pyrazol-4-yl)-8-(5-ethoxy-6-methyl-pyridin-3-yl)-3-methyl-1,3-dihydro-imidazo[4,5-c]quinolin-2-one], the values for the IC50 (at PI3K alpha; at mTOR; in assay [1]) were 0.006 µM, 0.017 µM and 0.001 µM, respectively.

Consider `COc1ncc(-c2ccc3ncc4c(c3c2)n(-c2cn(C)nc2C)c(=O)n4C)cn1` [Example 17.2, 1-(1,3-Dimethyl-1H-pyrazol-4-yl)-8-(2-methoxy-pyrimidin-5-yl)-3-methyl-1,3-dihydro-imidazo[4,5-c]quinolin-2-one], for which the half-maximal inhibitory concentration (IC50) on PI3K alpha was 0.056 µM; at mTOR, 0.068 µM; in assay [1], 0.033 µM.

For `COc1cc(-c2ccc3ncc4c(c3c2)n(-c2cn(C)nc2C)c(=O)n4C)cnc1C` [Example 184, 1-(1,3-Dimethyl-1H-pyrazol-4-yl)-8-(5-methoxy-6-methyl-pyridin-3-yl)-3-methyl-1,3-dihydro-imidazo[4,5-c]quinolin-2-one], the IC50 on PI3K alpha came out at 0.004 µM; on mTOR it was 0.006 µM; in assay [1], 0.005 µM.
